The subject of one experiment is E. coli C1508. Conditions: broth microdilution, MDR clinical isolate.
Another experiment deals with Blautia obeum GC925. As to the kind of experiment: MIC, anaerobic gut bacteria. The format is cell-based. The following applies: gut isolate, BHI + L-cysteine, haemin, vitamin K, 37 °C.
The test system of a further experiment is S. aureus USA 300. Conditions: broth microdilution, MHBII. (In broth dilution the organism is exposed to a series of concentrations in liquid medium.)
The subject of experiment [1] is M. avium subsp. avium ATCC 25291. The following applies: Middlebrook 7H9 + 10% OADC + 0.05% Tween-80.

In brackets after ≈: the same amount, converted by molar mass. Where two headings read alike, the source gives them in different places. Where a SMILES comes first, the peptide text is derived from it. Bridges are numbered along the chain shown (N, C = ends). [ ]: non-standard residue; d: D form. dOrn = NCCC[C@@H](N)C(=O)O Bounds are passed on as bounds.

From PMC13372681, “A natural depsipeptide antibiotic binds the E-site of the bacterial ribosome” (Nature, 2026) come the findings set out here.

The term MIC denotes the least concentration at which growth counts as inhibited. As for `C[C@@H](O)[C@@H]1NC(=O)[C@@H](CCCNC(=N)N)NC(=O)[C@@H](CCCNC(=N)N)NC(=O)[C@@H](CC(N)=O)NC(=O)[C@@H](NC(=O)[C@@H](Cc2ccccc2)NC(=O)[C@@H](CCCN)NC(=O)[C@H](N)CCCNC(=N)N)[C@@H](C)OC(=O)[C@H](Cc2c[nH]cn2)NC1=O` [MKM-A, manikomycin] (H-[dR][dOrn][dF]T[dN][dR][dR]TH; ester 4-C), the MIC is 32 µg/mL (≈ 27 µM) against E. coli C1508 (Ca+ MHB Medium); 16 µg/mL (≈ 13.5 µM) against E. coli C1508 (MOPS Minimal Medium); 4 µg/mL (≈ 3.38 µM) in the experiment on E. coli C1508 (RPMI Medium); greater than 256 µg/mL in the experiment on Blautia obeum GC925; 128 µg/mL (≈ 108 µM) in the experiment on S. aureus USA 300; 8 µg/mL (≈ 6.76 µM) with E. coli C0617 (C0617). The MIC stood at 32 µg/mL (≈ 27 µM) against E. coli C0617 (broth microdilution, Ca+ MHB Medium, MDR clinical isolate) and 32 µg/mL in experiment [1].
